{"source": "paper PMC12388980", "about": "“Development of AGT-7: An Innovative ^99mTc-Labeled Theranostic Platform for Glioblastoma Imaging and Therapy” (Pharmaceuticals, 2025)", "key": {"T98 cells [1]": {"system": "T98 cells", "test": "Flow cytometric analysis of DNA cell cycle, T98 cells", "format": "cell-based", "settings": "treated at IC50 for 72 h", "description": "(§1) Subsequently, cells were washed with phosphate-buffered saline (PBS) solution, harvested by incubation with trypsin, and held at 37 °C for 20 min with a PI working solution ([…], and 0.1% Triton X-100). PI fluorescence data were collected using a flow cytometer (Cytognos S.L., Polígono La Serna, Nave 9, 37900 Santa Marta de Tormes, Salamanca, Spain) and were analyzed using GraphPad Prism Version 6 software and MedCalc software (trial version).\n(§2) Figure 5 Graphical representation of cell cycle distribution in T98 (A) and U87 (B) cell lines after treatment with AGT-7 in IC50 concentration. Experiment was carried out three times, and values are means of three repetitions."}, "U87 cells [2]": {"system": "U87 cells", "test": "Flow cytometric analysis of DNA cell cycle, U87 cells", "format": "cell-based", "settings": "treated at IC50 for 72 h", "description": "as §1, §2"}, "T98 cells [3]": {"system": "T98 cells", "test": "Trypan blue exclusion cytotoxicity assay, T98 cells", "format": "cell-based", "settings": "Homo sapiens, T98 cell line, 72 h post-treatment", "description": "(§3) To explore the effect of AGT-7 on the viability of GBM cell lines, T98 and U87 cells were cultured with escalating concentrations of the compounds for 72 h, and afterward, the trypan blue exclusion assay was carried out.\n(§4) The sensitivity of T98 and U87 cells to the compound was assessed using the trypan blue exclusion test. A total of 20,000 cells were seeded onto 12-well plates and incubated in a humidified atmosphere. After 24 h, cells were treated with the compound at concentrations of 20–100 μM for 72 h followed by trypan blue exclusion analysis. The results were derived as the mean of three independent experiments.\n(§5) Figure 3 Cytotoxic effect of AGT-7 on T98 (A) and U87 cell lines (B) 72 h after treatment. The results are the average of three independent experiments and are standardized to untreated cells. The IC50 values were calculated using the GraphPad Prism Version 6 non-linear regression analysis model.\nas §5, with “4” for “3”, “AGT-7 and TMZ” for “AGT-7”"}, "[4]": {"system": "zebrafish (Danio rerio) embryos", "test": "Acute toxicity test in zebrafish embryos (OECD 2010)", "format": "in vivo", "settings": "96 hpf", "description": "Prior to advancing the biological evaluation of AGT-7, it was essential to assess its in vivo acute toxicity. To this end, we employed a standard acute exposure assay using zebrafish (Danio rerio) embryos as a vertebrate model system. Drug exposure was for 96 h post-fertilization (hpf), following the guidelines established by the Organisation for Economic Co-operation and Development (OECD, 2010) for fish embryo toxicity testing. […] This alignment between therapeutically effective concentrations and sub-lethal doses in vivo underscores a favorable safety profile for AGT-7 and supports its further preclinical development.\nAdult zebrafish specimens of the wild-type strain (AB) were maintained in a colony room, in a recirculated system, at 28 ± 1 °C, pH 6.5–7.5, and water conductivity of 500 ± 50 μS cm−1 with a 14 h light/10 h dark photoperiod (lights on at 8:00 a.m.). Feeding of the fish was performed twice a day with zebrafish feed (Zebrafeed, Sparos, […]) following common practices. Sexually mature zebrafish (at least three months old) were used for spawning.\nThe collection of zebrafish eggs was performed at the beginning of the 14 h light phase following the mating procedure that took place overnight. […] The dechorionation process of the eggs followed at 24 h post-fertilization (hpf).\nThe dechorionated embryos were placed in 24-well culture plates (2 embryos per well, 1.5 mL of solution per well), and each experiment was performed in triplicate. Preliminary tests were performed to evaluate the range of 0–100% mortality. DMSO (0.1%) was used as dissolver and as well as vehicle control (non-exposed). In the current study, seven different concentrations of AGT-7 were tested (0.0, 10.0, 20.0, 40.0, 60.0, 80.0, and 100.0 μΜ). In total, 881 embryos were studied, of which 96 belonged to the non-exposed group. […] Each experiment lasted 96 h post fertilization time (hpf) and began at 24 hpf, approximately at the 26-somite point, according to Kimmel et al..\nIt is essential to apply an acute test that uses short-term exposure (96hpf) to AGT-7 and then to determine the concentration that is lethal to 50% of zebrafish embryos. This is a valuable indicator of acute fish toxicity. According to OECD 2010, indications of death of an embryo include coagulation of the embryo, lack of somite formation, non-detachment of the tail, and/or lack of heartbeat.\nToxicity assays (LD50 values) and confidence limits (LD25 and LD75) were calculated based on cumulative mortality at the end of the experiment (96 hpf). The LD50 values were assessed using Regression Probit analysis (the chi-square test, Pearson goodness of fit test, and 95% confidence interval)."}, "[5]": {"test": "LC-MS-based plasma stability in human plasma", "format": "in vitro ADME", "settings": "1 μM, 37 °C, 9-h incubation period, compared to TMZ", "description": "Plasma samples were diluted 1:1 (v/v) with phosphate buffer (pH 7.4). […] The mixtures were vortexed vigorously and incubated at 37 °C on a thermoshaker (Kisker Biotech, Steinfurt, Germany) at 600 rpm. Reactions were terminated at 0, 1, 2, 3, 4, 6, 9, and 24 h by transferring 150 μL of the incubated plasma into 450 μL of ice-cold ACN. After vortexing, samples were stored at −20 °C for 30 min and centrifuged, and 200 μL of the supernatant was diluted with 600 μL of water. The resulting solution was filtered through a 0.22 μm nylon syringe filter (Target Analysis, Thessaloniki, Greece) into 2 mL glass vials before analysis.\nThe mobile phase consisted of (A) 0.1% formic acid in water and (B) 0.05% formic acid in ACN, delivered constantly at 0.2 mL/min. The gradient program was optimized as follows: 1% B (0.00–3.00 min), linear ramp to 100% B (3.00–10.00 min), hold at 100% B (10.00–12.00 min), return to initial conditions (12.00–12.01 min), and re-equilibration at 1% B (12.01–15.00 min). […]\nFull-scan MS data were acquired in MS^E mode with two alternating collision energy functions: low energy (4 eV) for precursor ions and ramped high energy (25–45 eV) for fragment ions. […] System control and data acquisition were managed using MassLynx v4.2 (SCN 1029), while UNIFI v1.9.4.053 facilitated data processing, including adduct identification ([M+H]⁺, [M+Na]⁺, [M+H2]^2+) and relative quantitation. […]"}, "U87 cells [6]": {"system": "U87 cells", "test": "Trypan blue exclusion cytotoxicity assay, U87 cells", "format": "cell-based", "settings": "Homo sapiens, U-87 MG, U87 cell line, 72 h post-treatment", "description": "as §3, §4, §5\nas §5, with “4” for “3”, “AGT-7 and TMZ” for “AGT-7”"}}}
{"smiles": "Cn1nnc2c(C(=O)NCCCCN(Cc3ccccn3)Cc3ccccn3)ncn2c1=O", "note": "[AGT-7]", "values": [{"measurement": "effect on cell cycle progression", "setting": "T98 cells [1]", "result": "no significant effect on cell cycle progression"}, {"measurement": "effect on cell cycle progression", "setting": "U87 cells [2]", "result": "no significant effect on cell cycle progression"}, {"measurement": "IC50", "setting": "T98 cells [3]", "result": 27, "unit": "µM"}, {"measurement": "LD25", "setting": "[4]", "result": 35.54, "unit": "µM"}, {"measurement": "LD75", "setting": "[4]", "result": 61.64, "unit": "µM"}, {"measurement": "concentrations with no significant mortality", "setting": "[4]", "result": "up to 30 μM"}, {"measurement": "LD50", "setting": "[4]; cumulative mortality, probit analysis", "result": 46.81, "unit": "µM"}, {"measurement": "plasma stability profile", "setting": "[5]", "result": "very similar to that of the parent drug, TMZ"}, {"measurement": "IC50", "setting": "U87 cells [6]", "result": 30, "unit": "µM"}]}
{"smiles": "Cn1nnc2c(C(N)=O)ncn2c1=O", "note": "[TMZ, temozolomide, reference compound]", "values": [{"measurement": "IC50", "setting": "T98 cells [3]", "result": 143, "unit": "µM"}, {"measurement": "IC50", "setting": "U87 cells [6]", "result": 50, "unit": "µM"}]}
